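Test compounds were applied to cells in 96-well plates for 48 hours at 5 doses. At the GI50, growth is halved.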 Active and inactive are the calls of the source. Rule as the data show it: active = GI50 up to about 1.1 µM and inactive = higher.
Columns and labels:
Assay in all cases: DTP human tumour cell line panel, 48 h
[1] = tested on: SF-295
[2] = tested on: TK-10
[3] = tested on: NCI-H23
[4] = tested on: T47D
[5] = tested on: KM12
[6] = tested on: SK-MEL-5
[7] = tested on: NCI-H522
[8] = tested on: HOP-92
[9] = tested on: SK-MEL-2
[10] = tested on: IGROV-1
[11] = tested on: MOLT-4
[12] = tested on: HCC 2998
[13] = tested on: RXF 393
[14] = tested on: UACC-62
[15] = tested on: OVCAR-3
[16] = tested on: A549
[17] = tested on: EKVX
[18] = tested on: OVCAR-5
[19] = tested on: NCI-H226
[20] = tested on: HOP-62

Measured: GI50

O=C1Nc2c(Cl)cc(Cl)cc2/C1=N/Nc1ccccc1[N+](=O)[O-]
inactive: [1] 11.7 µM | [2] 22.6 µM | [3] 26.1 µM | [4] 70.5 µM | [5] 88.9 µM | [6] > 100 µM | [7] 35.2 µM | [8] 12 µM | [9] 18.2 µM | [10] 23.8 µM | [11] 46.1 µM | [12] > 100 µM | [13] 14.2 µM | [14] 22.2 µM | [15] 50.7 µM | [16] 69.2 µM | [17] 5.7 µM | [18] > 100 µM | [19] 49 µM | [20] 5.47 µM

CCOc1cc2c(NCCCN(CCO)CCO)ncnc2c(OCC)c1OCC
inactive: [1] > 100 µM | [2] > 100 µM | [3] > 100 µM | [4] > 90.4 µM | [5] > 100 µM | [6] > 100 µM | [7] > 100 µM | [8] 34.3 µM | [9] > 87.3 µM | [10] > 100 µM | [11] > 87.1 µM | [12] 22 µM | [13] > 82 µM | [14] > 100 µM | [15] > 100 µM | [16] > 94.4 µM | [17] > 100 µM | [18] > 100 µM | [19] 21.7 µM | [20] > 100 µM

O=S(=O)(c1ccc(Br)cc1)n1c2ccc(Br)cc2c2nc3ccccc3nc21
inactive: [1] 68.1 µM | [2] 82 µM | [3] > 100 µM | [4] 61.8 µM | [5] > 100 µM | [6] > 100 µM | [7] > 100 µM | [8] 39.7 µM | [9] 57.5 µM | [10] 78.7 µM | [11] > 100 µM | [12] > 100 µM | [13] 20.1 µM | [14] 38.3 µM | [15] > 100 µM | [16] > 100 µM | [17] > 100 µM | [18] > 100 µM | [19] > 100 µM | [20] 34.3 µM

Source: ChEMBL document CHEMBL1201862, “PubChem BioAssay data set” (2004)
